Each structure is given as a SMILES string.

For the assay, the target named is T1, human Glucose-dependent Insulinotropic Polypeptide Receptor (hGIPR) (Homo sapiens, UniProt P48546).
T1 sequence (P48546 22-466): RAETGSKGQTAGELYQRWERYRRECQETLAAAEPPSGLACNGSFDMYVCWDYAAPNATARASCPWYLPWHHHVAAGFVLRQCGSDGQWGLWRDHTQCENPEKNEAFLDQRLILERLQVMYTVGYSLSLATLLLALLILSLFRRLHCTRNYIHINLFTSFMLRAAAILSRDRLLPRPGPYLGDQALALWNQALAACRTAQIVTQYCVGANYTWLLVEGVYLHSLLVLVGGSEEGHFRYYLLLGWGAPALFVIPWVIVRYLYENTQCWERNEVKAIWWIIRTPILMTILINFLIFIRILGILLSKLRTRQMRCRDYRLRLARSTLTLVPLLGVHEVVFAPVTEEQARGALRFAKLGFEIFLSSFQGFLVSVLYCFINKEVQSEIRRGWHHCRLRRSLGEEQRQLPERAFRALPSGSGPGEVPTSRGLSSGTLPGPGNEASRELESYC
The assay is described as follows: Functional in vitro GIPR antagonist potency assay (cAMP HTRF, CHO-K1 cells stably expressing hGIPR, hGIP stimulation at about EC80). The class given is cell-based. To be noted: geometric mean, hGIP at estimated EC80, examples marked ^2: overall geometric mean of multiple forms (including salts) tested. The method, then:
Example AA. Functional In Vitro GIPR Antagonist Potency Assay
The functional in vitro antagonist potency for test compounds was determined by monitoring intracellular cyclic adenosine monophosphate (cAMP) levels in Chinese hamster ovary (CHO)—K1 cells stably expressing the human Glucose-dependent Insulinotropic Polypeptide Receptor (hGIPR). Following agonist activation, hGIPR associates with the G-protein complex causing the Gαs subunit to exchange bound guanosine diphosphate (GDP) for guanosine triphosphate (GTP), followed by dissociation of the Gαs-GTP complex. The activated Gas subunit can couple to downstream effectors to regulate the levels of second messengers or cAMP within the cell. Thereby, determination of intracellular cAMP levels allows for pharmacological characterization. Intracellular cAMP levels are quantitated using a homogenous assay utilizing the Homogeneous Time Resolved Fluorescence (HTRF) technology from Perkin Elmer. […] The two entities compete for binding to a monoclonal anti-cAMP antibody labeled with cryptate. The specific signal is inversely proportional to the concentration of cAMP in the cells.
Test compounds were solubilized to a concentration of 30 mM in 100% dimethyl sulfoxide (DMSO). An 11-point dilution series using 1 in 3.162-fold serial dilutions was created in 100% DMSO with a top concentration of 8 mM. The serially diluted compound was spotted with an Echo Acoustic liquid handler (Beckman Coulter) into a 384-well assay plate (Corning, Cat No. 3824) at 50 nL/well with duplicate points at each concentration, at a 200× final assay concentration (FAC). The final compound concentration range in the assay was 40 μM to […], with a final DMSO concentration of 0.5%.
Frozen assay-ready vials (at 1×10^7 cells/vial) of CHO-K1 cells stably expressing the Gs-coupled human GIPR receptor (Eurofins, DiscoverX, Cat No. 95-0146C2) were thawed, counted, and resuspended in assay buffer consisting of Hank's Balanced Salt Solution (HBSS, Lonza Cat No. 10-527) containing 20 mM (4-(2-hydroxyethyl)-1-piperazineethanesulfonic acid (HEPES, Lonza, Cat No. 17-737E), 0.1% bovine serum albumin (BSA, Sigma, Cat No. A7979), and 200 μM 3-isobutyl-1-methylxanthine (IBMX, Sigma, Cat No. 15879) at a density of 4×10^5 cells/mL. Cells were added to assay plate (5 μL/well of 4×10^5 cells/mL stock for 2,000 cells/well final) containing 50 nL of 200× FAC test compound, and incubated at 37° C. (95% O2: 5% CO2) for 2 hours, with micro-clime lids (Labcyte, Cat No. LLS-0310). Following the 2-hour cell and compound incubation, a stimulation mix comprised of hGIPR agonist human glucose-dependent insulinotropic polypeptide (hGIP, full length, Sigma Cat No. G2269) in assay buffer/0.1% DMSO was added to the assay plate (5 μL/well) at an estimated EC80 FAC (based on previous hGIP agonist curves) and incubated for another 30 minutes with micro-clime lids at 37° C. (95% O2: 5% CO2), after which intracellular cAMP levels were quantified as per Perkin Elmer's protocol (5 μL of d2 and then 5 μL cryptate, incubated for 1 hour at room temperature). Emission spectra of samples were measured on a Pherastar plate reader (BMG Labtech Inc) using a HTRF protocol (excitation, 320 nm; emission, 665 nm/620 nm).
(95% O2: 5% CO2), with a micro-clime lid. Following the 2-hour cell and DMSO incubation, a hGIP concentration response curve at 2× FAC (12-point curve using 1 in 3 serial dilutions, with triplicate points at each concentration, 100 nM final top concentration) in assay buffer/1% DMSO was added (5 μL/well) and incubated for a further 30 minutes with a micro-clime lid at 37° C. (95% O2: 5% CO2), after which intracellular cAMP levels were quantified and samples measured as described previously. Experiments passed quality control if the agonist concentration used for stimulation fell between the on-the-day EC50-EC90. […]
As a reminder, the IC50 is the concentration that inhibits the measured activity by half. `O=C(O)c1ccc(-c2ccc(NC(=O)[C@H]3CCCN3C(=O)Nc3ccc(C4CC4)c(C(F)(F)F)c3)cc2)cc1` [Example 26, 4′-[(1-{[4-Cyclopropyl-3-(trifluoromethyl)phenyl]carbamoyl}-D-prolyl)amino][1,1′-biphenyl]-4-carboxylic acid]: the 50% inhibitory concentration (IC50) was 2.1 nM. The result for `Cc1nc(C(=O)O)ccc1-c1ccc(NC(=O)[C@H]2CCCN2C(=O)Nc2ccc(C(C)C)c(F)c2)cc1` [Example 27, 5-{4-[(1-{[3-Fluoro-4-(propan-2-yl)phenyl]carbamoyl}-D-prolyl)amino]phenyl}-6-methylpyridine-2-carboxylic acid] reads 4.8 nM; that for `CC(C)c1ccc(NC(=O)N2CCC[C@@H]2C(=O)Nc2ccc(-c3ccc(C(=O)O)c(F)c3)cc2)cc1` [Example 28, 3-Fluoro-4′-[(1-{[4-(propan-2-yl)phenyl]carbamoyl}-D-prolyl)amino][1,1′-biphenyl]-4-carboxylic acid], 10 nM. In the case of `COc1cc(C(=O)O)ccc1-c1ccc(NC(=O)[C@H]2CCCN2C(=O)Nc2ccc(C(C)C)cc2)cc1` [Example 29, 2-Methoxy-4′-[(1-{[4-(propan-2-yl)phenyl]carbamoyl}-D-prolyl)amino][1,1′-biphenyl]-4-carboxylic acid], the concentration for half-maximal inhibition (IC50) is 17 nM. The figure for `COc1cc(-c2ccc(NC(=O)[C@H]3CCCN3C(=O)Nc3ccc(C(C)C)c(C)c3)cc2)ccc1C(=O)O` [Example 30, 3-Methoxy-4′-[(1-{[3-methyl-4-(propan-2-yl)phenyl]carbamoyl}-D-prolyl)amino][1,1′-biphenyl]-4-carboxylic acid] is 5.7 nM. With `O=C(O)c1ccc(-c2ccc(NC(=O)[C@H]3CCCN3C(=O)Nc3ccc(C(F)(F)F)cc3)nc2)cc1` [Example 31, 4-{6-[(1-{[4-(Trifluoromethyl)phenyl]carbamoyl}-D-prolyl)amino]pyridin-3-yl}benzoic acid], the IC50 is 7.8 nM. The figure for `COc1cc(-c2ccc(NC(=O)[C@H]3CCCN3C(=O)Nc3ccc(C(C)C)c(F)c3)cc2)ccc1C(=O)O` [Example 32, 4′-[(1-{[3-Fluoro-4-(propan-2-yl)phenyl]carbamoyl}-D-prolyl)amino]-3-methoxy[1,1′-biphenyl]-4-carboxylic acid] is 6.1 nM.

Consider `CC(C)c1ccc(NC(=O)N2CCC[C@@H]2C(=O)Nc2cnc(-c3ccc(C(=O)O)cc3)c(F)c2)cc1` [Example 33, 4-{3-Fluoro-5-[(1-{[4-(propan-2-yl)phenyl]carbamoyl}-D-prolyl)amino]pyridin-2-yl}benzoic acid], for which the IC50 was 6.3 nM. The result for `CO[C@@H]1C[C@H](C(=O)Nc2ccc(-c3ccc(C(=O)O)cc3)cc2)N(C(=O)Nc2ccc(C(C)C)cc2)C1` [Example 36, 4′-{[(4R)-4-Methoxy-1-{[4-(propan-2-yl)phenyl]carbamoyl}-D-prolyl]amino}[1,1′-biphenyl]-4-carboxylic acid] reads 46 nM. Turning to `CC(C)c1ccc([C@H](C)NC(=O)N2CCC[C@@H]2C(=O)Nc2ccc(-c3ccc(C(=O)O)cc3)cc2)cc1` [Example 37, 4′-{[1-({(1S)-1-[4-(Propan-2-yl)phenyl]ethyl}carbamoyl)-D-prolyl]amino}[1,1′-biphenyl]-4-carboxylic acid], the IC50 was 58 nM.

Regarding `O=C(O)c1cccc(-c2ccc(NC(=O)[C@H]3CCCN3C(=O)Nc3ccc(C4CCC4)cc3)nc2)c1` [Example 38, 3-[6-({1-[(4-Cyclobutylphenyl)carbamoyl]-D-prolyl}amino)pyridin-3-yl]benzoic acid], the half-inhibitory concentration (IC50) is 17 nM. The result for `Cc1cc(NC(=O)N2CCC[C@@H]2C(=O)Nc2ccc(-c3ccc(C(=O)O)cc3)cc2)ccc1C(C)C` [Example 39, ammonium 4′-[(1-{[3-methyl-4-(propan-2-yl)phenyl]carbamoyl}-D-prolyl)amino][1,1′-biphenyl]-4-carboxylate] reads 3.7 nM. Turning to `Cc1cc(-c2ccc(NC(=O)[C@H]3CCCN3C(=O)Nc3ccc(C(C)C)cc3)cc2)ccc1C(=O)O` [Example 40, 3-methyl-4′-[(1-{[4-(propan-2-yl)phenyl]carbamoyl}-D-prolyl)amino][1,1′-biphenyl]-4-carboxylic acid], the IC50 was 7.3 nM. The result for `O=C(O)c1ccc(-c2ccc(NC(=O)[C@H]3CCCN3C(=O)Nc3ccc(C4(C(F)(F)F)CC4)cc3)cc2)cc1` [Example 42, ammonium 4′-{[1-({4-[1-(trifluoromethyl)cyclopropyl]phenyl}carbamoyl)-D-prolyl]amino}[1,1′-biphenyl]-4-carboxylate] reads 15 nM. The result for `Cc1cc(NC(=O)N2CCC[C@@H]2C(=O)Nc2ccc(-c3ccc(C(=O)O)cc3)cc2)ccc1Cl` [Example 43, ammonium 4′-({1-[(4-chloro-3-methylphenyl)carbamoyl]-D-prolyl}amino)[1,1′-biphenyl]-4-carboxylate] reads 49 nM; that for `CC(C)c1ccc(NC(=O)N2CCC[C@@H]2C(=O)Nc2ccc(-c3cc(C(=O)O)c(F)cc3F)cc2)cc1` [Example 45, 4,6-difluoro-4′-[(1-{[4-(propan-2-yl)phenyl]carbamoyl}-D-prolyl)amino][1,1′-biphenyl]-3-carboxylic acid], 540 nM.

For the compound `CC(C)c1ccc(NC(=O)N2CCC[C@@H]2C(=O)Nc2ccc(-c3ccc(O)cc3)cc2)cc1` [Example 46, (2R)-N^2-(4′-hydroxy[1,1′-biphenyl]-4-yl)-N^1-[4-(propan-2-yl)phenyl]pyrrolidine-1,2-dicarboxamide], the half-maximal inhibitory concentration (IC50) was 160 nM. The result for `CC(C)c1ccc(NC(=O)N2CCC[C@@H]2C(=O)Nc2ccc(-c3cc(F)c(O)cc3F)cc2)cc1` [Example 47, (2R)-N^2-(2′,5′-difluoro-4′-hydroxy[1,1′-biphenyl]-4-yl)-N^1-[4-(propan-2-yl)phenyl]pyrrolidine-1,2-dicarboxamide] reads 47 nM. The result for `CC(C)c1ccc(NC(=O)N2CCC[C@@H]2C(=O)Nc2ccc(-c3c(F)cc(C(=O)O)cc3F)cc2)cc1` [Example 48, 2,6-difluoro-4′-[(1-{[4-(propan-2-yl)phenyl]carbamoyl}-D-prolyl)amino][1,1′-biphenyl]-4-carboxylic acid] reads 23 nM. Take `CC(C)c1ccc(NC(=O)N2CCC[C@@H]2C(=O)Nc2ccc(-c3ccc(C(=O)O)cc3C(F)(F)F)cc2)cc1` [Example 49, 4′-[(1-{[4-(propan-2-yl)phenyl]carbamoyl}-D-prolyl)amino]-2-(trifluoromethyl)[1,1′-biphenyl]-4-carboxylic acid]: the IC50 is 14 nM. The result for `Cc1cc(C(=O)O)cc(-c2ccc(NC(=O)[C@H]3CCCN3C(=O)Nc3ccc(C(C)C)cc3)cc2)c1` [Example 50, 5-methyl-4′-[(1-{[4-(propan-2-yl)phenyl]carbamoyl}-D-prolyl)amino][1,1′-biphenyl]-3-carboxylic acid] reads 83 nM.

Values taken from patent US20240366598A1, “GLUCOSE-DEPENDENT INSULINOTROPIC POLYPEPTIDE RECEPTOR ANTAGONISTS AND USES THEREOF” (Pfizer Inc., priority 2023, published 2024).
